Experimental findings from patent US20090215884A1, “METHOD FOR WOUND HEALING” (priority 2005, published 2009) are described below.

The test system of this experiment is dermal fibroblasts. The experiment can be described thus: Dermal fibroblast differentiation (α-smooth muscle actin expression). It counts as cell-based, human. To be noted: absence of TGF-β1. As to the method: The effects of PEP005 on dermal fibroblast differentiation to myofibroblasts, was examined by the extent of α-smooth muscle actin expression by the differentiating dermal fibroblasts, following stimulation with TGF-β. Following trypsinization, the dermal fibroblasts were suspended in Fibroblast-Serum Containing Medium, containing 10% fetal calf serum, at a cell density of 2.5×10^4 cells/ml. Aliquots (250 μl/well) of the dermal fibroblast cell suspension were seeded into 8-well chamber slides (VWR International Ltd.) and maintained at 37° C., in a 5% CO2/95% air atmosphere, until approximately 30-40% confluent. […] Various controls (three chamber slide per control) were also established, including (i) Fibroblast-Serum Containing Medium alone, (ii) cells in Fibroblast-Serum Containing Medium (cytokeratin or vimentin 1° Ab control), (iii) cells in Fibroblast-Serum Containing Medium, containing 10 ng/ml TGF-β and 1% DMSO, and (iv) cells in Fibroblast-Serum Containing Medium, containing 1% DMSO.
The chamber slides were maintained at 37° C., in a 5% CO2/95% air atmosphere, for 3 days, by which time, the cells had reached approximately 75% confluence. Chamber slides were fixed in 1:1 ice cold, acetone:methanol (300 μl/well) for 20 min and blocked in 1% BSA in PBS, at 4° C., for 1 h. […]

For the compound `C/C=C(/C)C(=O)O[C@H]1C(C)=C[C@]23C(=O)[C@@H](C=C(CO)[C@@H](O)[C@]12O)[C@H]1[C@@H](C[C@H]3C)C1(C)C` [PEP005, ingenol-3-angelate], the “α-smooth muscle actin expression” value runs as follows: (1 μg/ml PEP005) “detectable α-smooth muscle actin microfilaments”; (10 μg/ml PEP005) “detectable α-smooth muscle actin microfilaments”.
